This note sets out measurements from US6734205B2, “Substituted guanidine derivatives” (Sumitomo Pharmaceuticals Company Limited, priority 1999, dated 2004).

Structures can show the parent of a compound that is named as a salt. A value given as a limit tells only on which side of the number the result lay.

In general, melting point refers to the temperature, or range, at which the solid turns liquid. Turning to `CS(=O)(=O)O.Cn1c(C(=O)NC(=N)N)cc2c(C(F)(F)F)cc(P(=O)(O)O)cc21`, the melting point was 286 °C (dec.).
Next, `CS(=O)(=O)O.Cn1c(C(=O)NC(=N)N)cc2c(C(F)(F)F)ccc(P(=O)(O)O)c21`: 258 °C (dec.).
Next, `Br.Cn1c(C(=O)NC(=N)N)cc2c(C(F)(F)F)ccc(CCP(=O)(O)O)c21`: 234 °C (dec.); `Cc1c(OS(=O)(=O)O)ccc2c1cc(C(=O)NC(=N)N)n2C` (as salt: sulfate) [Example 1, 2-[[[amino(imino)methyl]amino]-carbonyl]-1,4-dimethyl-1H-indol-5-yl Hydrogen Sulfate]: 267 to 268 °C (dec.); `Cc1cc(OS(=O)(=O)O)cc2c1cc(C(=O)NC(=N)N)n2C` (as salt: sulfate) [Example 2, 2-[[[Amino(imino)methyl]amino]carbonyl]-1,4-dimethyl-1H-indol-6-yl Hydrogen Sulfate]: 303 to 304 °C (dec.).
In the case of `Cn1c(C(=O)NC(=N)N)cc2cccc(OS(=O)(=O)O)c21` (as salt: sulfate) [Example 3, 2-[[[Amino(imino)methyl]amino]carbonyl]-1-methyl-1H-indol-7-yl Hydrogen Sulfate], the melting point was 279 to 280 °C (dec.).
With `Cc1ccc(OS(=O)(=O)O)c2c1cc(C(=O)NC(=N)N)n2C` (as salt: sulfate) [Example 4, 2-[[[amino(imino)methyl]amino]-carbonyl]-1,4-dimethyl-1H-indol-7-yl Hydrogen Sulfate], the melting point was > 315 °C (dec.).
The figure for `Cn1c(C(=O)NC(=N)N)cc2c(OS(=O)(=O)O)cccc21` (as salt: sulfate) [Example 5, 2-[[[Amino(imino)methyl]amino]carbonyl]-1-methyl-1H-indol-4-yl Hydrogen Sulfate] is 249 to 250 °C (dec.).
On to `Cn1c(C(=O)NC(=N)N)cc2cc(OS(=O)(=O)O)ccc21` (as salt: sulfate) [Example 6, 2-[[[Amino(imino)methyl]amino]carbonyl]-1-methyl-1H-indol-5-yl Hydrogen Sulfate], for which the melting point was 280 to 281 °C (dec.).
On to `Cn1c(C(=O)NC(=N)N)cc2ccc(OS(=O)(=O)O)cc21` (as salt: sulfate) [Example 7, 2-[[[Amino(imino)methyl]amino]carbonyl]-1-methyl-1H-indol-6-yl Hydrogen Sulfate], for which the melting point was 283 to 284 °C (dec.).
The figure for `Cn1c(C(=O)NC(=N)N)cc2c(Cl)cc(OS(=O)(=O)O)cc21` (as salt: sulfate) [Example 11, 2-[[[Amino(imino)methyl]amino]carbonyl]-4-chloro-1-methyl-1H-indol-6-yl Hydrogen Sulfate] is 298 °C (dec.); for `Cn1c(C(=O)NC(=N)N)cc2c(C(F)(F)F)cc(OS(=O)(=O)O)cc21` (as salt: sulfate) [Example 12, 2-[[[Amino(imino)methyl]amino]carbonyl]-1-methyl-4-(trifluoromethyl)-1H-indol-6-yl Hydrogen Sulfate] it is 300 °C (dec.); for `Cn1c(C(=O)NC(=N)N)cc2c(C(F)(F)F)ccc(OS(=O)(=O)O)c21` (as salt: sulfate) [Example 13, 2-[[[Amino(imino)methyl]amino]carbonyl]-1-methyl-4-(trifluoromethyl)-1H-indol-7-yl Hydrogen Sulfate] it is 298 °C (dec.).
Next, `Cn1c(C(=O)NC(=N)N)cc2c(Cl)ccc(OS(=O)(=O)O)c21` (as salt: sulfate) [Example 14, 2-[[[Amino(imino)methyl]amino]carbonyl]-4-chloro-1-methyl-1H-indol-7-yl Hydrogen Sulfate]: 338 °C (dec.); `CS(=O)(=O)O.Cn1c(C(=O)NC(=N)N)cc2ccc(O[C@@H]3O[C@H](C(=O)O)[C@@H](O)[C@H](O)[C@H]3O)cc21` [Example 8, [2-[[[amino(imino)methyl]amino]-carbonyl]-1-methyl-1H-indol-6-yl] β-D-glucopyranosideuronic Acid Methanesulfonate]: 170 to 171 °C.
The figure for `CS(=O)(=O)O.Cn1c(C(=O)NC(=N)N)cc2cc(O[C@@H]3O[C@H](C(=O)O)[C@@H](O)[C@H](O)[C@H]3O)ccc21` [Example 9, [2-[[[Amino(imino)methyl]amino]carbonyl]-1-methyl-1H-indol-5-yl] β-D-glucopyranosideuronic Acid Methanesulfonate] is 219 °C (dec.); for `Cn1c(C(=O)NC(=N)N)cc2c(C(F)(F)F)cc(CP(=O)(O)O)cc21` [Example 15, [2-[[[amino(imino)methyl]amino]-carbonyl]-1-methyl-4-(trifluoromethyl)-1H-indol-6-yl]-methylphosphonic Acid] it is 231 to 266 °C (dec.); for `Cn1c(C(=O)NC(=N)N)cc2c(C(F)(F)F)ccc(CP(=O)(O)O)c21` [Example 16, [2-[[[Amino(imino)methyl]amino]carbonyl]-1-methyl-4-(trifluoromethyl)-1H-indol-7-yl]methylphosphonic Acid] it is 249 to 265 °C (dec.).
For the compound `Cn1c(C(=O)NC(=N)N)cc2c(Cl)cc(CP(=O)(O)O)cc21` [Example 17, [2-[[[Amino(imino)methyl]amino]carbonyl]-4-chloro-1-methyl-1H-indol-6-yl]methylphosphonic Acid], the melting point was 265 to 282 °C (dec.).
The figure for `Cn1c(C(=O)NC(=N)N)cc2c(Cl)ccc(CP(=O)(O)O)c21` [Example 18, [2-[[[Amino(imino)methyl]amino]carbonyl]-4-chloro-1-methyl-1H-indol-7-yl]methylphosphonic Acid] is 273 to 284 °C (dec.); for `Cc1ccc(CP(=O)(O)O)c2c1cc(C(=O)NC(=N)N)n2C` [Example 20, [2-[[[Amino(imino)methyl]amino]carbonyl]-1,4-dimethyl-1H-indol-7-yl]methylphosphonic Acid] it is 239 to 280 °C (dec.); for `Cn1c(C(=O)NC(=N)N)cc2c(C(F)(F)F)cc(OCC(=O)O)cc21` [Example 21, [[2-[[[amino(imino)methyl]-amino]carbonyl]-1-methyl-4-(trifluoromethyl)-1H-indol-6-yl]oxy]acetic Acid] it is 250 to 266 °C (dec.).
Turning to `Cn1c(C(=O)NC(=N)N)cc2c(C(F)(F)F)ccc(OCC(=O)O)c21` [Example 22, [[2-[[[Amino(imino)methyl]amino]carbonyl]-1-methyl-4-(trifluoromethyl)-1H-indol-7-yl]oxy]acetic Acid], the melting point is 224 to 233 °C (dec.).
For the compound `Cn1c(C(=O)NC(=N)N)cc2c(Cl)cc(OCC(=O)O)cc21` [Example 23, [[2-[[[Amino(imino)methyl]amino]carbonyl]-4-chloro-1-methyl-1H-indol-6-yl]oxy]acetic Acid], the melting point was 257 to 260 °C (dec.).
As to `Cn1c(C(=O)NC(=N)N)cc2c(Cl)ccc(OCC(=O)O)c21` [Example 24, [[2-[[[Amino(imino)methyl]amino]carbonyl]-4-chloro-1-methyl-1H-indol-7-yl]oxy]acetic Acid], the melting point was 210 to 225 °C (dec.).
As to `Cc1cc(OCC(=O)O)cc2c1cc(C(=O)NC(=N)N)n2C` [Example 25, [[2-[[[Amino(imino)methyl]amino]carbonyl]-1,4-dimethyl-1H-indol-6-yl]oxy]acetic Acid], the melting point was 260 to 270 °C (dec.).
Regarding `Cc1ccc(OCC(=O)O)c2c1cc(C(=O)NC(=N)N)n2C` [Example 26, [[2-[[[Amino(imino)methyl]amino]carbonyl]-1,4-dimethyl-1H-indol-7-yl]oxy]acetic Acid], the melting point is 248 to 252 °C (dec.).
With `N=C(N)NC(=O)c1cc2c(Cl)cccc2n1CCCS(=O)(=O)O` [Example 27, 3-[2-[[[amino(imino)methyl]-amino]carbonyl]-4-chloro-1H-indol-1-yl]-1-propanesulfonic Acid], the melting point was 281 °C (dec.).
Next, `N=C(N)NC(=O)c1cc2c(C(F)(F)F)cccc2n1CCCS(=O)(=O)O` [Example 28, 3-[2-[[[Amino(imino)methyl]amino]carbonyl]-4-(trifluoromethyl)-1H-indol-1-yl]-1-propanesulfonic Acid]: greater than 300 °C; `Cc1cccc2c1cc(C(=O)NC(=N)N)n2CCCS(=O)(=O)O` [Example 29, 3-[2-[[[Amino(imino)methyl]amino]carbonyl]-4-methyl-1H-indol-1-yl]-1-propanesulfonic Acid]: 298 °C (dec.).
Next, `Cn1c(C(=O)NC(=N)N)cc2c(C(F)(F)F)ccc(OCCS(=O)(=O)O)c21` [Example 31, 2-[[2-[[[Amino(imino)methyl]amino]carbonyl]-1-methyl-4-(trifluoromethyl)-1H-indol-7-yl]oxy]-ethanesulfonic Acid]: 275 °C (dec.).
Next, `Cn1c(C(=O)NC(=N)N)cc2c(C(F)(F)F)ccc(OCCCS(=O)(=O)O)c21` [Example 33, 3-[[2-[[[Amino(imino)methyl]amino]carbonyl]-1-methyl-4-(trifluoromethyl)-1H-indol-7-yl]oxy]-1-propanesulfonic Acid]: ≥ 272 °C (dec.).
For the compound `Cn1c(C(=O)NC(=N)N)cc2c(Cl)cc(OCCCS(=O)(=O)O)cc21` [Example 34, 3-[[2-[[[Amino(imino)methyl]amino]carbonyl]-4-chloro-1-methyl-1H-indol-6-yl]oxy]-1-propanesulfonic Acid], the melting point is 325 °C (dec.).
As for `Cc1cc(OCCCS(=O)(=O)O)cc2c1cc(C(=O)NC(=N)N)n2C` [Example 35, 3-[[2-[[[Amino(imino)methyl]amino]carbonyl]-1,4-dimethyl-1H-indol-6-yl]oxy]-1-propanesulfonic Acid], the melting point is 290 °C (dec.).
The figure for `Cc1ccc(OCCCS(=O)(=O)O)c2c1cc(C(=O)NC(=N)N)n2C` [Example 36, 3-[[2-[[[Amino(imino)methyl]amino]carbonyl]-1,4-dimethyl-1H-indol-7-yl]oxy]-1-propanesulfonic Acid] is ≥ 278 °C (dec.); for `Cn1c(C(=O)NC(=N)N)cc2c(C(F)(F)F)cc(CS(=O)(=O)O)cc21` [Example 37, [2-[[[amino(imino)methyl]amino]-carbonyl]-1-methyl-4-(trifluoromethyl)-1H-indol-6-yl]-methanesulfonic Acid] it is no less than 300 °C.
